{"source": "patent US20160106439A1", "about": "“PNEUMATIC TOURNIQUET” (BIONUMERIK PHARMACEUTICALS, INC., priority 2013, published 2016)", "key": {"Recombinant human ERCC1": {"molecular_target": "T1, Recombinant human ERCC1 (Homo sapiens, UniProt P07992)", "T1 construct": "6xHis (N); purchased Creative BioMart; host or cells: E. coli", "T1 sequence (P07992 whole entry, the tested form may be a part)": "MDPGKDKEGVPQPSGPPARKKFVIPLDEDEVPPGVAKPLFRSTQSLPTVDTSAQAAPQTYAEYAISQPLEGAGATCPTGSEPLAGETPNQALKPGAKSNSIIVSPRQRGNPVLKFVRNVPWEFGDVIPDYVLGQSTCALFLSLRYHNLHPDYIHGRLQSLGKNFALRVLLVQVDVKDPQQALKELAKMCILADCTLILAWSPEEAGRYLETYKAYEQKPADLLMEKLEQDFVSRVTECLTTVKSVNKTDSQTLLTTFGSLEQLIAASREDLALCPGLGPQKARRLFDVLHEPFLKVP", "test": "Tavocept-derived mesna adducts on ERCC1 (trypsin digest, LC-MS)", "format": "binding", "conditions": "20 mM Tavocept, LC-MS of tryptic fragments", "method": "Recombinant human ERCC1 (1 mg; 27.8 nanomoles, Creative BioMart) was reduced using a vast excess of dithiothreitol (DTT, 100 μL of a 500 mM stock) in ammonium bicarbonate (40 mM, pH 8.0) at 37° C. for 75 minutes (total reaction volume was 900 μL). […] Each 800 μL reaction was then chromatographed over a NAP10 column. This step removed unreacted Tavocept and was used for the buffer control simply to ensure that both samples received the same handling/manipulation during the course of the experiment. The elution volume from each NAP10 column was 1.2 mL. […] Trypsin digestion reactions were incubated for 1 hour at 30° C. and then for 17 hours at room temperature (23° C.). Following the Trypsin digest, the samples were lyophilized to dryness overnight and then resuspended in a volume of approximately 100 μL water and analyzed using LC-MS. A Symmetry C18 HPLC column (Waters, Franklin, Mass.; 3.5 μm; 4.6 mm×75 mm) and a Waters Alliance liquid chromatography system (Waters 2695, Franklin, Mass., USA) coupled to a Micromass single quadropole mass detector (Micromass ZMD, Manchester, UK) were used to analyze fragments from trypsin-digested human ERCC1. The mobile phase contained 0.1% of formic acid throughout the run and the flow rate was 0.35 mL/min. […]"}, "[1]": {"molecular_target": "T2, human glutaredoxin (Grx1) (Homo sapiens, UniProt P35754)", "T2 construct": "6xHis (TEV-cleavable) (N, cleaved yes); made in house; host or cells: E. coli BL21 (RIPL)", "T2 sequence (P35754 whole entry)": "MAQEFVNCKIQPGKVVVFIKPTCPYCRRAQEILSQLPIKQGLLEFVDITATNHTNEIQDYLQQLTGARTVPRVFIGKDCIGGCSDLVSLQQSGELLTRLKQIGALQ", "test": "X-ray crystallography of Grx1 with Tavocept-derived mesna adducts", "format": "binding", "conditions": "40 mM Tavocept", "description": "Diffraction data were collected at the Advanced Light Source (ALS) (Berkeley, Calif.). […] Data was processed using the program package MosFlm as part of the ccp4 program package.\nData was indexed, integrated, scaled and merged using the program Mosflm. […] The solution was consistent with one molecule in the crystal asymmetric unit. […] The structure solution is supported by contiguous electron density for the entire chain trace of each molecule, landmark side chain density features matching the amino acid sequence including cysteines, absence of phi-psi violations and final R/Rfree values in the normal range. […] Residues Gln39 and Glu55 have missing side-chain atoms in the final structures (side chain atoms CD, CG, OE1, NE2 and CD, OE1, OE2, respectively)."}, "[2]": {"test_system": "bovine brain microtubule protein (α-/β-tubulin)", "test": "Microtubule protein polymerization assay (OD350) and electron microscopy", "format": "biochemical"}, "[3]": {"molecular_target": "T3, Mesenchymal Epithelial Transition (MET) Factor Kinase (Homo sapiens, UniProt P08581)", "T3 construct": "the kinase domain of MET (residues 956-end) was used in these experiments; purchased SignalChem M52-18G-10; host or cells: Sf9 insect cells", "T3 sequence (P08581 956-1390 limits assumed)": "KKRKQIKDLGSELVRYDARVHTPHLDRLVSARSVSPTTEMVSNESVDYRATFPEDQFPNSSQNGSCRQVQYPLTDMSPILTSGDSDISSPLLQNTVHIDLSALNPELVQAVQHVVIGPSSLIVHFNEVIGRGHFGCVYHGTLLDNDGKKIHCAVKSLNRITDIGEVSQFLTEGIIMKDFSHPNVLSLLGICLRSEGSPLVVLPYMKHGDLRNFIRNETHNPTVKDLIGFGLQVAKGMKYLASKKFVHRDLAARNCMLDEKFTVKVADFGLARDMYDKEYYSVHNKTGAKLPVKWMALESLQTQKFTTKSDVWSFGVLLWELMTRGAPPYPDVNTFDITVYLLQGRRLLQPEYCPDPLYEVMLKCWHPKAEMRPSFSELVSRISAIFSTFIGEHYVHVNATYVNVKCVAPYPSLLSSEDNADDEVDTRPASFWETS", "test": "MET kinase inhibition (summary Table 27)", "format": "biochemical", "conditions": "modification of non-active site cysteine(s)"}, "bovine TrxR": {"molecular_target": "T4, bovine TrxR (Bos taurus, UniProt O62768)", "T4 construct": "purchased American Diagnostica", "T4 sequence (O62768 whole entry)": "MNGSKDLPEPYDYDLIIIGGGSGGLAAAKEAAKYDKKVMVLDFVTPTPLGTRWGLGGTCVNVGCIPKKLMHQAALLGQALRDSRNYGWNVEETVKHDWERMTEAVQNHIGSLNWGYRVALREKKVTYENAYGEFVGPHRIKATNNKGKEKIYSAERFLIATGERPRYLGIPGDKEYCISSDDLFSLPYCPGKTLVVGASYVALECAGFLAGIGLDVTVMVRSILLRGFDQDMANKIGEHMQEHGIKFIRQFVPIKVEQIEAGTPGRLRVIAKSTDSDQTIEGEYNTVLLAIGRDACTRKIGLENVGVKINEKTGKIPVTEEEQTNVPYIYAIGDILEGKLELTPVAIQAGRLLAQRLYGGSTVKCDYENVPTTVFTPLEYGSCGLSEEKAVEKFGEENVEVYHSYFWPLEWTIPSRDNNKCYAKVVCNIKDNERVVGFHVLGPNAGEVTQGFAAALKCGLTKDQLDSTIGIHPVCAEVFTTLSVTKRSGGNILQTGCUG", "test": "NADPH oxidation assay, Reaction A (TrxR alone)", "format": "biochemical", "conditions": "without Trx, disulfide 0.5 mM", "method": "See, Luthman M and Holmgren A. Rat liver thioredoxin and thioredoxin reductase: purification and characterization. Biochemistry 21:6628-6633 (1982). A typical assay mixture contained buffer (50 mM potassium phosphate, pH 7.0, 1 mM EDTA), NADPH (200 μM), and bovine TrxR (1.6 μg, 0.138 μM). Assays were run with and without recombinant human Trx (4.8 μM). […] All disulfides were added to reactions as 10x solutions in buffer. The total volume of each reaction was 0.1 mL. Reactions were initiated by the addition of TrxR and were incubated at 25° C. for 40 minutes. Reactions were analyzed using a Molecular Devices SpectraMax Plus UV/vis plate reader and the activity was calculated using a 4 minute linear portion of each assay."}, "IGF1R": {"molecular_target": "IGF1R (Homo sapiens, UniProt P08069)", "sequence (P08069 31-1367)": "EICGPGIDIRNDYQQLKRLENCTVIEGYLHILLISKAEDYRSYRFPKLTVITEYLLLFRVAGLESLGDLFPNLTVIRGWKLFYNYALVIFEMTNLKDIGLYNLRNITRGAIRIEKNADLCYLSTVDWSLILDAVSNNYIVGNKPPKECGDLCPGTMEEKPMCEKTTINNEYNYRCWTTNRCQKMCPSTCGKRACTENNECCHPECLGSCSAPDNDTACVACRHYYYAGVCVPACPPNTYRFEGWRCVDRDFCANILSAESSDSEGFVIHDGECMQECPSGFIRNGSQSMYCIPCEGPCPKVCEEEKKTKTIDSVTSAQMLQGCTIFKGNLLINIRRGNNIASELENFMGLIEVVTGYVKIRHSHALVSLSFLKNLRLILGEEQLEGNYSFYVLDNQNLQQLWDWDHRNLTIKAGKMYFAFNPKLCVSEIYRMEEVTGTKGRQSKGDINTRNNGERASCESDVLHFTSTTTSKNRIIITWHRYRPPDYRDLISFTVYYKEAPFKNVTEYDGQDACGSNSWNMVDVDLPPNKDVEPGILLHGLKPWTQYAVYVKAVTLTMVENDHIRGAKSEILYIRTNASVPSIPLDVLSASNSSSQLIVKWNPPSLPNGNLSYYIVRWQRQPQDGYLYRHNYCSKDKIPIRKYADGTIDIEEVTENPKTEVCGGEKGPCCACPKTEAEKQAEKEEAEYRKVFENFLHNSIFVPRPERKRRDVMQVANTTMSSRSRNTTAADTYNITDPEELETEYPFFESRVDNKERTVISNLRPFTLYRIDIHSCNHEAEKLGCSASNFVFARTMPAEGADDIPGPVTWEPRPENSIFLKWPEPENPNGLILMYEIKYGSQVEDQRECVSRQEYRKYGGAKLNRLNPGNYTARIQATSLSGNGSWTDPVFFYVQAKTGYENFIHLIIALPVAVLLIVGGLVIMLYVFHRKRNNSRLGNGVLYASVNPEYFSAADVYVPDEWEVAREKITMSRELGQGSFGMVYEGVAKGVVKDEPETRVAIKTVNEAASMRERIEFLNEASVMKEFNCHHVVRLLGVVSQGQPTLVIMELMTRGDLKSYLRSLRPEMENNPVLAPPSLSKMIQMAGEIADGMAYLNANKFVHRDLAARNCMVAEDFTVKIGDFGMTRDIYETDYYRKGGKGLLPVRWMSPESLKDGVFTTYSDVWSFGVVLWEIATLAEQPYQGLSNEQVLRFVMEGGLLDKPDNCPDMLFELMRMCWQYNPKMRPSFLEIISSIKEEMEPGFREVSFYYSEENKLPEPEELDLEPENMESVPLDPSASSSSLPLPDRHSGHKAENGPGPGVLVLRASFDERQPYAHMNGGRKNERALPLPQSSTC", "test": "IGF1R kinase assay (ADP-glo) after pre-incubation", "format": "biochemical", "method": "Prior to initiating the IGF1R kinase assays, IGF1R was incubated with Tavocept-IGF1R kinase phosphorylated the IGF1Rtide substrate using the ATP cofactor and produced ADP. The assays in half area 96-well microtiter plates were 10 μL in volume and contained IGF1R (4 ng total or 0.4 ng/μL), ATP (100 μM), IGF1Rtide substrate ([…]), and the concentrations of the various test articles as indicated. Additionally, kinase assay buffer was added to achieve a final reaction volume of 10 μL per assay. IGF1R kinase reactions were incubated for 60 minutes at 25° C. in a water bath. Following this 60 minute incubation, reactions were transferred to microplates and the kinase activity was evaluated using the ADP-glo system from Promega (this system monitors ADP produced when IGF1R phosphorylates the IGF1Rtide substrate)."}}, "note": "“Also recorded” adds a separate entry of the source."}
{"smiles": "O=S(=O)([O-])CCSSCCS(=O)(=O)[O-].[Na+].[Na+]", "note": "[Tavocept, disodium 2,2′-dithio-bis-ethane sulfonate]", "values": [{"measurement": "ERCC1 cysteine xenobiotically modified", "setting": "Recombinant human ERCC1", "result": "Cys238; also recorded: Cys274"}, {"measurement": "Tavocept-derived mesna adduct sites on Grx", "setting": "[1]", "result": "observed on Cys7 and Cys82"}, {"measurement": "effect on paclitaxel-induced hyperpolymerization of MTP", "setting": "[2]", "result": "normalizes"}, {"measurement": "inhibition of paclitaxel promoted microtubule protein polymerization", "setting": "[2]; 12 mM Tavocept, paclitaxel 10 μM", "result": "approximately 50%"}, {"measurement": "Tavocept concentration giving final polymerization equal to GTP control", "setting": "[2]; MTP exposed to paclitaxel", "result": "≥ 6", "unit": "mM"}, {"measurement": "Tavocept concentration inhibiting paclitaxel (10 μM) promoted hyperpolymerization", "setting": "[2]; paclitaxel 10 μM", "result": "> 1", "unit": "mM"}, {"measurement": "Tavocept concentration giving net polymerization equivalent to GTP/MgCl2 only control", "setting": "[2]; paclitaxel/GTP/MgCl2 10 μM/1 mM/1 mM", "result": "6 to 8", "unit": "mM"}, {"measurement": "microtubules visible on electron microscopy grids", "setting": "[2]; preincubated 20 minutes on ice, with and without paclitaxel, qualitative", "result": "reduction in the abundance of microtubules"}, {"measurement": "effect on GTP-catalyzed microtubule protein polymerization", "setting": "[2]; preincubated with microtubule protein on ice 20 minutes, 37° C.", "result": "dose-dependent inhibitory effect; also recorded: inhibit GTP-catalyzed polymerization; also recorded: concentration dependent manner"}, {"measurement": "Effect on MET", "setting": "[3]", "result": "resulting in enzyme inhibition (MET)."}, {"measurement": "Reduction of disulfide by TrxR alone", "setting": "bovine TrxR", "result": "did not detectably reduce"}, {"measurement": "loss of IGF1R kinase activity", "setting": "IGF1R; 20 mM Tavocept pre-incubated with IGF1R for 24 hours, 100 μM ATP", "result": "approximately 33%"}, {"measurement": "loss of IGF1R kinase activity", "setting": "IGF1R; other concentrations and pre-incubation times", "result": "≤ 10", "unit": "%"}]}
